Reference: US6737058B2, “Methods for inhibiting endothelial cell and fibrinogen mediated inflammation using fibrinogen specific antibodies” (The Scripps Research Institute, priority 1992, dated 2004)

Experiments:
[1] = system: HUVEC; experiment: Fibrinogen-mediated adhesion of 51Cr-labelled THP-1 cells to HUVEC; format: cell-based, human
Procedure: For these assays, HUVEC were plated in the medium described in Example 2A at a density of approximately 1-5×10^4 cells/well into flat-bottom microtiter wells of a 96 well tissue-culture treated plate. The cells were then washed in serum-free RPMI 1640 and further maintained with ^51-Chromium-labelled (^51Cr) THP-1 cell suspensions previously exposed to different concentrations of unlabelled fibrinogen or left untreated. To label THP-1 cells, serum-free suspensions of the cells at a concentration of 1×10^7 cells/ml were labelled with 0.5 mCi ^51Cr (Na2CrO4 having a specific activity of 487.4 mCi/mg, NEN Du Pont de Nemours) for 2 hours at 37° C. with incorporation of an average of 12 to 20 cpm/THP-1 cell. The labelled cells were then washed twice at room temperature with serum-free RPMI 1640 and resuspended in the same medium at a concentration of 5 ×10^5 cells/ml. The labelled cells were used in the assays within 2 hours from the labelling procedure. For the assays, the cells were pre-stimulated with 1 μM N-FMLP in the presence of 1 mM CaCl2 and […] PPack. The resultant N-FMLP-stimulated THP-1 cell suspensions were then separately admixed with the following: 1) Medium without any admixed fibrinogen as a control; 2) Fibrinogen at 1.2 mg/ml and at 2.5 mg/ml concentrations; and 3) Normal human plasma (NHP) diluted 1:2 and 1:50. Purified fibrinogen was prepared as described in Example 1. Fibrinogen was present in undiluted normal human plasma at the concentration of approximately 1-3 mg/ml. The resultant admixtures were maintained for 20 minutes at 22° C. to allow for the binding of fibrinogen, either purified or present in NHP, to the Mac-1 receptor on the surface of the THP-1 cells.
The resultant fibrinogen-bound THP-1 cells were then admixed to the washed immobilized HUVEC described above to allow for the binding of a non-Mac-1 receptor binding site on fibrinogen to the RGD-independent fibrinogen receptor on the surface of HUVEC, thereby resulting in the binding of THP-1 cells to HUVEC via a fibrinogen bridge. The admixtures were maintained at 37° C. to allow for adhesion. At selected time intervals between 1 to 60 minutes, the HUVEC monolayers were gently washed five times with serum-free RPMI 1640 to remove nonadherent or loosely adherent THP-1 cells to which fibrinogen was initially immobilized. The adherent cells were then solubilized in 10% SDS and the cell lysate was quantitated in a beta scintillation counter. Spontaneous ^51Cr release from THP-1 cells was always less than 2% during the adhesion assay. The number of specifically attached THP-1 cells was determined by dividing the cpm harvested by the cpm/cell.
To determine the effects that temperature has on the ability of fibrinogen to mediate the binding of ^51Cr-labelled THP-1 cells to monolayers of HUVEC, cell adhesion assays as described in Example 3B1) were performed at 22° C. and at 37° C. over the course of one hour. The assays were performed in an identical manner as described above with the exception that 500 μg/ml of fibrinogen was used instead of […]. The maximum binding of THP-1 cells to HUVEC at 22° C. was 7500 cells after 40 minutes. At 60 minutes, the binding decreased to 5000 cells. The data is significant in comparison to the approximately 2000 THP-1 cells attached in the absence of fibrinogen. However, at 37° C., approximately 20,000 THP-1 cells attached to HUVEC after 40 minutes against a background binding of approximately 5000 cells in the absence of fibrinogen. The binding of ^51Cr-labelled THP-1 cells to HUVEC, thus, is maximized at the physiologic temperature of 37° C. with physiologic concentrations of fibrinogen.

[2] = system: bovine aortic endothelial cells (BAE); experiment: Fibrinogen-mediated adhesion of 51Cr-labelled THP-1 cells to bovine aortic endothelial cells; format: cell-based; details: 500 μg/ml fibrinogen
Procedure: Cell adhesion binding assays described above were performed on bovine aortic endothelial cells (BAE) to determine if fibrinogen could mediate the binding of ^51Cr-labelled THP-1 cells to endothelial cells from a different source. Cell cultures were prepared from bovine aorta following procedures known to one skilled in the art. THP-1 cells were either left untreated or treated with 500 μg/ml fibrinogen over a 60 minute time course. At selected time points, the cells were harvested as described in Example 3B1) and the number of attached THP-1 cells were determined as previously described. […] However, in the presence of fibrinogen, approximately 20,000 cells bound to BAE cells after a 40 minute maintenance period. This maximum binding dropped off at 60 minutes to approximately 15,000 attached cells. Binding of THP-1 cells to HUVEC was done in parallel as a control for the experiment; the non-saturable binding of THP-1 cells in the presence of fibrinogen was maximal at 60 minutes with approximately 25,000 cells attached. Thus, fibrinogen mediates the binding of THP-1 cells not only to human endothelial cells but also to bovine-derived endothelial cells.

Substance: fibrinogen: fibrinogen isolated from fresh plasma by cold ethanol fractionation, fibronectin-free
- THP-1 cells bound to HUVEC, maximum ([1]; 500 μg/ml fibrinogen, 22° C., 40 minutes): 7500 cells
- THP-1 cells bound to HUVEC ([1]; 500 μg/ml fibrinogen, 22° C., 60 minutes): 5000 cells
- THP-1 cells attached to HUVEC ([1]; 500 μg/ml fibrinogen, 37° C., 40 minutes): approximately 20,000 cells
- THP-1 cells attached to HUVEC (parallel control), maximal ([1]; 500 μg/ml fibrinogen, 60 minutes, non-saturable): approximately 25,000 cells
- THP-1 cells attached to HUVEC, maximum ([1]; 1.2 mg/ml fibrinogen, 37° C., 60 minute time course): 10,000 cells
- THP-1 cells attached to HUVEC ([1]; 2.5 mg/ml fibrinogen, 60 minutes, not saturated): approximately 18,000 cells
- THP-1 cells bound to BAE cells ([2]; 40 minutes): approximately 20,000 cells
- THP-1 cells bound to BAE cells ([2]; 60 minutes): approximately 15,000 cells
